Data published in patent US8444970B2, “Compositions and methods for treating ocular diseases and conditions” (Lpath, Inc., priority 2006, dated 2013).
Where “and” joins values, the source holds several entries; their conditions need not be identical. Identical values can stand only once.

Tests used:
[1] = test system: peripheral lymphocyte counts; settings: single oral dose; cited from earlier work
[2] = test system: human conjunctiva fibroblasts; assay: alpha-SMA expression in conjunctiva fibroblasts; format: cell-based; settings: 10 uM S1P (only at this concentration)
From the text: (§1) In many of these disorders, circulating growth factors and chemokines promote the transformation of normal ocular cells into fibrocontractile, scar tissue-producing cells that have been termed “myofibroblasts”. Normally, myofibroblasts are responsible for tissue repair as part of the wound healing response following injury. However altered number and function of myofibroblasts are implicated in diseases characterized by pathological scar tissue formation in the liver, skin, lung, kidney, heart and eyes. In the eye, transformation of retinal pigmented epithelial (RPE) cells to a myofibroblast phenotype is linked to formation of fibro-contractile membranes which cause retinal detachment and subsequent vision impairment. In addition, myofibroblast transformation of ocular fibroblasts can result in abnormal scar tissue production after eye injury leading to subsequent vision loss. Although many of the circulating protein factors in the eye that promote myofibroblast formation have been identified, nothing is known regarding the role of lysolipids such as S1P in this process. Therefore, we examined the effects of S1P on myofibroblast transformation of several human ocular cell lines.
(§2) In these experiments, the ability of S1P to promote α-SMA expression differed in a concentration dependent manner between the retinal pigmented epithelial cells and conjunctiva fibroblasts. […]

[3] = test system: endothelial cell (EC) infiltration into Matrigel plugs; assay: In vivo Matrigel plug assay, S1P-supplemented plugs, EC infiltration; set-up: species or system mouse; settings: plugs containing S1P
Description: Based on in vivo studies showing that S1P increased endothelial capillary growth into subcutaneously implanted Matrigel plugs, we speculated that SPHINGOMAB could reduce de novo BV formation in vivo. To investigate this, we employed the in vivo Matrigel Plug assay for neovascularization. In one set of experiments, Matrigel was supplemented with either […], 0.5 μg/mL bFGF or 1 μg/mL VEGF and then injected […]. into mice (n=4). After 10 days, the mice were heparinized and injected with the fluorescent lectin, Isolectin B4-FITC, which binds to adhesion molecules expressed by vascular EC that form the growing BVs. The plugs were then excised, frozen in OCT, sectioned and viewed for FITC-stained BVs.
Sections of the plugs were then stained with hemotoxyln & eosin for evaluation of EC infiltration (FIG. 6B). The infiltration of ECs is a critical step in neo-vascularization. […] Cell infiltration is presumed to be ECs although we recognize that other cell types such as immune cells may also be stained.

[4] = test system: human retinal pigmented epithelial cells; assay: alpha-SMA expression in retinal pigmented epithelial cells; format: cell-based
From the text: as §1, §2

[5] = test system: COLO205 colorectal tumor xenograft; assay: SC COLO205 colorectal tumor xenograft in nude NCr mice; format: in vivo, mouse; settings: LT1009 50 mg/kg ip q3d; Avastin 40 mg/kg iv q7d; Paclitaxel 15 mg/kg iv q1dx5
Description: Nude mice were implanted sc near the right flank with one fragment per mouse of COLO 205 tumor from an in vivo passage. All treatments were initiated the day when 60 mice in each experiment established tumors ranging in size from approximately 100 to 200 mm3. […] Avastin was administered iv at a dosage of 40 mg/kg/dose on a q7d schedule, injected in a volume of 0.1 mL/20 g body weight. Paclitaxel (positive control), was administered iv at a dosage of 15 mg/kg/dose on a q1d×5 schedule, injected in a volume of 0.1 mL/10 g body weight.
(§3) Animals were observed daily for mortality. Tumor dimensions and body weights were collected twice weekly starting with the first day of treatment and including the day of study termination. When the median tumor in the vehicle-treated control group in each study reached approximately 4,000 mg, the study was terminated. Tumors from each animal were harvested, wet weights were recorded, tumors were processed for determination of microvascular densities (MVD) by CD-31 staining. Tumor weights (mg) were calculated using the equation for an ellipsoid sphere (l×w^2)/2=mm^3, where l and w refer to the larger and smaller dimensions collected at each measurement and assuming unit density (1 mm3=1 mg).

[6] = test system: DU145 prostate tumor xenograft; assay: SC DU145 prostate tumor xenograft in nude NCr mice; format: in vivo, mouse; settings: LT1009 50 mg/kg ip q2d; Avastin 20 mg/kg q4d; Paclitaxel 7.5 mg/kg q1dx5
Description: Nude mice were implanted sc near the right flank with one fragment per mouse of DU145 tumor from an in vivo passage. All treatments were initiated the day when 60 mice in each experiment established tumors ranging in size from approximately 100 to 200 mm^3. […] Paclitaxel and Avastin were administered iv and ip at a dosage of 7.5 mg/kg/dose and 20 mg/kg/dose, q1d×5 and q4d, respectively, injected in a volume of 0.1 mL/10 g body weight.
During the course of the study tumor growth was monitored by measuring the sc tumors on three axes and calculating the volume. At the end of the study final tumor weights and volumes were determined and then the mice were sacrificed, the tumors harvested. Microvascular densities (MVD) of the tumors were then determined by CD-31 staining.

[7] = test system: HT29 colon tumor xenografts; assay: SC HT29 colorectal tumor xenograft in nude NCr mice; format: in vivo, mouse; settings: LT1009 50 mg/kg ip q2d; Avastin 20 mg/kg iv q4d; 5-FU 75 mg/kg ip q4d
Description: Nude mice were implanted sc near the right flank with one fragment per mouse of HT29 tumor from an in vivo passage. All treatments were initiated the day when 60 mice in each experiment established tumors ranging in size from approximately 100 to 200 mm^3. There were ten mice per treatment group. […] 75 mg/kg 5-FU and 20 mg/kg Avastin were administered ip and iv at a dosage of 75 mg/kg/dose and 20 mg/kg/dose, respectively, q4d, injected in a volume of 0.1 mL/10 g body weight.
as §3, with “recorded, and” for “recorded,”, “MVD” for “microvascular densities (MVD)”, “mm^3=1” for “mm3=1”

**Q.** Which “reduction of peripheral lymphocyte counts” value [1] does the source give for `CCCCCCCCc1ccc(CCC(N)(CO)CO)cc1` [FTY720] here?
**A.** 30-70%

**Q.** Which alpha-SMA expression [2] does the source give for `CCCCCCCCCCCCC/C=C/[C@@H](O)[C@@H](N)COP(=O)(O)O` [S1P, sphingosine-1-phosphate] here?
**A.** significant increase

**Q.** What about the “increase of EC infiltration vs Matrigel only plugs” value [3] of the same compound?
**A.** 3 fold

**Q.** And the alpha-SMA expression ([4]; 0.001 uM S1P)?
**A.** significant increase

**Q.** What about the alpha-SMA expression ([4]; 10 uM S1P) of the same compound?
**A.** decreased to basal levels

**Q.** With “Avastin: anti-angiogenic drug, bevacizumab (Avastin, Genentech)” as the compound, how does the “% Reduction compared to Vehicle-Treated Mice” value (from here on “% Reduction”) [5] read?
**A.** 35%

**Q.** And the “% Reduction” value [6]?
**A.** 80% and 79%

**Q.** What about the “% Reduction” value [7] of the same compound?
**A.** 30%
